Test results published in PubChem BioAssay (NCI).
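Values below derive from 48-hour exposures of cells grown in 96-well plates, with endpoints linearly interpolated between the two concentrations bracketing the appropriate inhibition level. TGI: total growth inhibition.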

Key:
Test in all cases: growth of human tumour cells (NCI), 48 h
SNB-19 CNS = system: SNB-19 CNS
T-47D breast = system: T-47D breast
HOP-92 NSCLC = system: HOP-92 NSCLC
HCC-2998 colon = system: HCC-2998 colon
U251 CNS = system: U251 CNS
K-562 leukemia = system: K-562 leukemia
OVCAR-5 ovarian = system: OVCAR-5 ovarian
NCI-H522 lung = system: NCI-H522 lung
IGROV1 ovarian = system: IGROV1 ovarian
NCI-H460 lung = system: NCI-H460 lung
SR leukemia = system: SR leukemia
OVCAR-4 ovarian = system: OVCAR-4 ovarian
CAKI-1 renal = system: CAKI-1 renal
DU-145 prostate = system: DU-145 prostate
NCI-H23 lung = system: NCI-H23 lung
M14 melanoma = system: M14 melanoma
A498 renal = system: A498 renal
HCT-15 colon = system: HCT-15 colon
MDA-MB-435 = system: MDA-MB-435
SF-295 CNS = system: SF-295 CNS
SNB-75 CNS = system: SNB-75 CNS
HL-60(TB) leukemia = system: HL-60(TB) leukemia
TK-10 renal = system: TK-10 renal
SW-620 colon = system: SW-620 colon
HS 578T breast = system: HS 578T breast
LOX IMVI melanoma = system: LOX IMVI melanoma
OVCAR-3 ovarian = system: OVCAR-3 ovarian
NCI-H226 lung = system: NCI-H226 lung
ACHN renal = system: ACHN renal
OVCAR-8 ovarian = system: OVCAR-8 ovarian
SN12C renal = system: SN12C renal
UO-31 renal = system: UO-31 renal
SK-MEL-28 melanoma = system: SK-MEL-28 melanoma
A549 NSCLC = system: A549 NSCLC
HCT-116 colon = system: HCT-116 colon
PC-3 prostate = system: PC-3 prostate
MDA-MB-231 breast = system: MDA-MB-231 breast
MOLT-4 leukemia = system: MOLT-4 leukemia
HOP-62 NSCLC = system: HOP-62 NSCLC
NCI/ADR-RES ovarian = system: NCI/ADR-RES ovarian
RPMI-8226 leukemia = system: RPMI-8226 leukemia
HT29 colon = system: HT29 colon
SK-OV-3 ovarian = system: SK-OV-3 ovarian
COLO 205 colon = system: COLO 205 colon
UACC-257 melanoma = system: UACC-257 melanoma
SK-MEL-2 melanoma = system: SK-MEL-2 melanoma
SK-MEL-5 melanoma = system: SK-MEL-5 melanoma
MDA-N = system: MDA-N
RXF 393 renal = system: RXF 393 renal
CCRF-CEM leukemia = system: CCRF-CEM leukemia
KM12 colon = system: KM12 colon
SF-539 CNS = system: SF-539 CNS
MALME-3M melanoma = system: MALME-3M melanoma
EKVX NSCLC = system: EKVX NSCLC
786-0 renal = system: 786-0 renal
SF-268 CNS = system: SF-268 CNS

**Q.** Which results are given for COP(=O)(OC)/C(=C\C1=CN(C(c2ccccc2)(c2ccccc2)c2ccccc2)CN1)NC=O?
**A.** TGI (SNB-19 CNS): 43.4 µM; TGI (T-47D breast): 49.2 µM; TGI (HOP-92 NSCLC): 23 µM; TGI (HCC-2998 colon): 38.4 µM; TGI (U251 CNS): 29.8 µM; TGI (K-562 leukemia): > 100 µM; TGI (OVCAR-5 ovarian): 31.8 µM; TGI (NCI-H522 lung): 33.5 µM; TGI (IGROV1 ovarian): 49.2 µM; TGI (NCI-H460 lung): 27 µM; TGI (SR leukemia): 33.7 µM; TGI (OVCAR-4 ovarian): 39.6 µM; TGI (CAKI-1 renal): 39.5 µM; TGI (DU-145 prostate): 35.2 µM; TGI (NCI-H23 lung): 36.3 µM; TGI (M14 melanoma): 43.9 µM; TGI (A498 renal): 32.2 µM; TGI (HCT-15 colon): 33.1 µM; TGI (MDA-MB-435): 23.1 µM; TGI (SF-295 CNS): 30.2 µM; TGI (SNB-75 CNS): 39.8 µM; TGI (HL-60(TB) leukemia): 50.9 µM; TGI (TK-10 renal): 49.7 µM; TGI (SW-620 colon): 42.4 µM; TGI (HS 578T breast): 51.2 µM; TGI (LOX IMVI melanoma): 26.3 µM; TGI (OVCAR-3 ovarian): 29.8 µM; TGI (NCI-H226 lung): 39.5 µM; TGI (ACHN renal): 28.9 µM; TGI (OVCAR-8 ovarian): 54.8 µM; TGI (SN12C renal): 36.3 µM; TGI (UO-31 renal): 29.1 µM; TGI (SK-MEL-28 melanoma): 32.5 µM; TGI (A549 NSCLC): 30.5 µM; TGI (HCT-116 colon): 29.6 µM; TGI (PC-3 prostate): 19.7 µM; TGI (MDA-MB-231 breast): 33.9 µM; TGI (MOLT-4 leukemia): 30.6 µM; TGI (HOP-62 NSCLC): 31.3 µM; TGI (NCI/ADR-RES ovarian): 29.9 µM; TGI (RPMI-8226 leukemia): 39.9 µM; TGI (HT29 colon): 28.2 µM; TGI (SK-OV-3 ovarian): 33.1 µM; TGI (COLO 205 colon): 40.5 µM; TGI (UACC-257 melanoma): 34.1 µM; TGI (SK-MEL-2 melanoma): 30.4 µM; TGI (SK-MEL-5 melanoma): 29.6 µM; TGI (MDA-N): 28.4 µM

**Q.** How did the TGI (SNB-19 CNS) turn out when Nc1c(N2CCCCC2)c(=O)nc2[nH]/c(=C\c3ccco3)c(=O)n12 was run?
**A.** > 100 µM

**Q.** What about the TGI (T-47D breast) of the same compound?
**A.** > 100 µM

**Q.** And the TGI (HOP-92 NSCLC)?
**A.** > 100 µM

**Q.** And the TGI (U251 CNS)?
**A.** > 100 µM

**Q.** And the TGI (RXF 393 renal)?
**A.** > 100 µM

**Q.** And the TGI (K-562 leukemia)?
**A.** > 100 µM

**Q.** And the TGI (OVCAR-5 ovarian)?
**A.** > 100 µM

**Q.** And the TGI (CCRF-CEM leukemia)?
**A.** > 100 µM

**Q.** And the TGI (NCI-H522 lung)?
**A.** > 100 µM

**Q.** What about the TGI (IGROV1 ovarian) of the same compound?
**A.** > 100 µM

**Q.** What about the TGI (SR leukemia) of the same compound?
**A.** > 100 µM

**Q.** What about the TGI (KM12 colon) of the same compound?
**A.** > 100 µM

**Q.** And the TGI (OVCAR-4 ovarian)?
**A.** > 100 µM

**Q.** What about the TGI (CAKI-1 renal) of the same compound?
**A.** > 100 µM

**Q.** What about the TGI (DU-145 prostate) of the same compound?
**A.** > 100 µM

**Q.** What about the TGI (NCI-H23 lung) of the same compound?
**A.** > 100 µM

**Q.** What about the TGI (M14 melanoma) of the same compound?
**A.** > 100 µM

**Q.** What about the TGI (A498 renal) of the same compound?
**A.** > 100 µM

**Q.** What about the TGI (HCT-15 colon) of the same compound?
**A.** > 100 µM

**Q.** What about the TGI (MDA-MB-435) of the same compound?
**A.** > 100 µM

**Q.** What about the TGI (SF-295 CNS) of the same compound?
**A.** > 100 µM

**Q.** And the TGI (SNB-75 CNS)?
**A.** > 100 µM

**Q.** What about the TGI (HL-60(TB) leukemia) of the same compound?
**A.** > 100 µM

**Q.** What about the TGI (TK-10 renal) of the same compound?
**A.** > 100 µM

**Q.** What about the TGI (SW-620 colon) of the same compound?
**A.** > 100 µM

**Q.** And the TGI (HS 578T breast)?
**A.** > 100 µM

**Q.** And the TGI (SF-539 CNS)?
**A.** > 100 µM

**Q.** And the TGI (LOX IMVI melanoma)?
**A.** > 100 µM

**Q.** What about the TGI (NCI-H226 lung) of the same compound?
**A.** > 100 µM

**Q.** What about the TGI (ACHN renal) of the same compound?
**A.** > 100 µM

**Q.** And the TGI (MALME-3M melanoma)?
**A.** > 100 µM

**Q.** What about the TGI (OVCAR-8 ovarian) of the same compound?
**A.** > 100 µM

**Q.** And the TGI (SN12C renal)?
**A.** > 100 µM

**Q.** What about the TGI (UO-31 renal) of the same compound?
**A.** > 100 µM

**Q.** And the TGI (SK-MEL-28 melanoma)?
**A.** > 100 µM

**Q.** And the TGI (EKVX NSCLC)?
**A.** > 100 µM

**Q.** And the TGI (A549 NSCLC)?
**A.** > 100 µM

**Q.** What about the TGI (HCT-116 colon) of the same compound?
**A.** > 100 µM

**Q.** And the TGI (MDA-MB-231 breast)?
**A.** > 100 µM

**Q.** And the TGI (MOLT-4 leukemia)?
**A.** > 100 µM

**Q.** And the TGI (786-0 renal)?
**A.** > 100 µM

**Q.** And the TGI (NCI/ADR-RES ovarian)?
**A.** > 100 µM

**Q.** What about the TGI (RPMI-8226 leukemia) of the same compound?
**A.** > 100 µM

**Q.** And the TGI (SF-268 CNS)?
**A.** > 100 µM

**Q.** What about the TGI (HT29 colon) of the same compound?
**A.** > 100 µM

**Q.** What about the TGI (SK-OV-3 ovarian) of the same compound?
**A.** > 100 µM

**Q.** And the TGI (COLO 205 colon)?
**A.** > 100 µM

**Q.** What about the TGI (UACC-257 melanoma) of the same compound?
**A.** > 100 µM

**Q.** And the TGI (SK-MEL-5 melanoma)?
**A.** > 100 µM

**Q.** What about the TGI (MDA-N) of the same compound?
**A.** > 100 µM
